The nature of data set [1]: MTT assay, toxicity on HDFa cells. Type of data set: cell-based. To be noted: human, normalized to non-treated cells, read-out: Cell viability. The procedure: (§1) Toxicity of cycled peptides A and B was analyzed on human dermal fibroblasts (HDFa) and adult human epidermal keratinocytes HEKa cells by MTT assay. A stock solution of the peptide was prepared in distilled water at 25 mg/mL. This stock solution was further diluted to obtain the final working concentrations (0.001, 0.005, 0.01, 0.05, 0.1 and 0.5 mg/mL) in the corresponding culture medium. Untreated cells were used as negative control samples (Basal).
(§2) Briefly, HEKa and HDFa cells were seeded in 96-well plates at a concentration of 1×10^5 cells/mL in a final volume of 200 µL of medium (20,000 cells/well). HEKa cells were incubated in Dermal Cell Basal Medium supplemented with the Keratinocytes Growth Kit; and HDFa cells were cultured in Medium 106 supplemented with 2% of LSGS. Cells were incubated at 37°C, 5% CO2 and saturated humidity.
(§3) After 24 h of incubation, cells were treated with different concentrations of each peptide (0.001, 0.005, 0.01, 0.05, 0.1 and 0.5 mg/mL) in triplicates, for MTT evaluation. After 24 h of treatment with the peptide, medium was completely removed, and 100 µL of 0.5 mg/mL MTT solution in supplemented medium were added to each well and cells were incubated at 37°C for 3 h. After incubating with MTT, the medium of each well was aspirated and 150 µL of DMSO were added in order to solubilise the formazan crystals formed. The plates were placed on a shaker for 5 minutes for complete solubilisation of the crystals and then the absorbance at 570 nm of each well was determined, using the microplate reader Multiskan FC, which is directly proportional to the number of living cells in culture.
(§4) Absorbance values were normalized using the data obtained for non-treated cells (control), obtaining the % of viability shown in Tables 1 and 2. Each condition was performed in triplicate (n=3) in 3 independent experiments (N=3).
(§5) Concentrations of peptide for which viability is above 80% are considered safe for efficacy testing. On the contrary, concentrations for which viability goes below 80% are considered potentially toxic and are not used for efficacy testing purposes. Table 1: Toxicity of cycled peptides on HDFa cells.

Data set [2] is described as follows: MTT assay, toxicity on HEKa cells. Type of data set: cell-based. To be noted: human, normalized to non-treated cells, read-out: Cell viability. The procedure:
as §1, §2, §3, §4, §5
For orientation: Tetrazolium assays rely on reduction of a dye to a coloured formazan, in cell work by metabolically active cells.

The test system of another data set is Caspase 3 (CASP3). Description: Caspase 3 activity under BFA-induced endoplasmic reticulum stress in HEKa (Caspase-Glo 3/7). Type of data set: cell-based, human. Conditions: BFA-induced ER stress, 24 h, vs BFA-treated cells (Figure 5). The procedure: Caspase 3 (CASP3) is a protein member of the cysteine-aspartic acid protease family. Sequential activation of caspases plays a central role in the execution-phase of cell apoptosis. It was evaluated the effect of the cycled peptide B on the caspase 3 activity in human epidermal keratinocytes from adult (HEKa) subjected to endoplasmic reticulum (ER) stress.
HEKa cells were seeded in a black 96-well plate at a density of 18.000 cell/well in Dermal Cell Basal Medium (DCBM) and incubated at 37 °C in a humidified atmosphere with 5% CO2. After 24 h of incubation, cells were treated with 0.15 µg/mL BFA alone or in the presence of 0.005 mg/mL of the cycled peptide B and returned to the incubator for 24 h more. Untreated cells (Basal) were used as negative control samples. 24 hours after treatment, caspase 3 activity was evaluated using Caspase-Glo® 3/7 Assay System, following manufacturer instructions.
Each condition was performed at least in triplicates (n=3) in three independent experiments (N=3). For all data, mean values of relative fluorescence units (RFU) of the different experiments and SEM values are shown. All data was normalized as follows: % vs BFA = (RFU treated cells)/(RFU BFA treated cells) × 100 [formula]
Statistical data analysis was performed using Student t-test by comparison of % activity from test substance vs BFA-treated cells, *p<0.05, **p<0.01, ***p<0.001.

Another data set relates to CALR. Description: RT-qPCR expression of CALR gene in HEKa. Conditions: 0.01 mg/mL, 24 hours, qPCR (Table 5). On the technique in general: Real-time PCR tracks product formation cycle by cycle.

Ends that are not written are not given here. Peptide text beside a SMILES is read from it.

Method for CALR: HEKa cells were incubated in the presence of 0.01 mg/mL cycled peptide B for 24 hours and HDFa cells were treated with 0.05 mg/mL of cycled peptide B for 6 h. Then, cells were lysed, and RNA was extracted (RNeasy mini kit, Qiagen). Purified RNAs were retro-transcribed (High-capacity cDNA reverse transcription kit, Applied Biosystems). RT-qPCR was performed with the panel of TaqMan assay probes (Thermo Fisher Scientific) using StepOne plus Real time PCR instrument. […] The obtained data were analyzed using the ΔΔCt method, which provides the target gene expression values as fold changes in the treated sample compared with an untreated basal sample. Both samples were normalized with the relative expression of the housekeeping gene GAPDH.
Additionally, expression of CALR after treatment with 0.01 mg/mL of cycled peptides A and B for 24 hours in HEKa cells was analyze by qPCR as described in example 3.

On to `CC(C)C[C@@H]1NC(=O)[C@H](C)NC(=O)[C@H](CCCNC(=N)N)NC(=O)[C@H](Cc2ccccc2)NC(=O)[C@H](Cc2c[nH]c3ccccc23)NC(=O)[C@H](Cc2c[nH]cn2)NC1=O` [Peptide A, cyclo-Trp-Phe-Arg-Ala-Leu-His] (cyclo(ALHWFR)), for which the viability at 24 h in data set [1] (0.001 mg/mL peptide) stood at 101%; in data set [1] (0.005 mg/mL peptide), 103%; in data set [1] (0.01 mg/mL peptide), 94.5%; in data set [1] (0.05 mg/mL peptide), 103%; in data set [1] (0.1 mg/mL peptide), 92.3%; in data set [1] (0.5 mg/mL peptide) it was 81.5%. The viability at 24 h in data set [2] (0.001 mg/mL peptide) turned out to be 103%; in data set [2] (0.005 mg/mL peptide) it was 108%; in data set [2] (0.01 mg/mL peptide) it was 109%; in data set [2] (0.05 mg/mL peptide), 93.8%; in data set [2] (0.1 mg/mL peptide) it was 88.3%; in data set [2] (0.5 mg/mL peptide) it was 75%. Besides, the “caspase 3 activity” value with Caspase 3 (CASP3) is “significantly reduce”. The “CALR expression, Effect” value in the data set with CALR is given as “Upregulation”. Besides, the “CALR expression, Ratio” value in the data set on CALR (Basal = 1.00) turned out to be 1.34.

On to “FWHALR [Linear peptide B, reference compound]”, for which the “CALR expression, Effect” value in the data set on CALR is “No effect”.

The viability is a read-out of living cells in per cent, often relative to untreated cells.

The values are drawn from patent EP4417190A1, “CYCLIC PEPTIDES WITH ANTI-AGING EFFICACY” (Lipotrue, S.L., priority 2023, dated 2024).
